The target in one assay is T1, human TLR7 (Homo sapiens, UniProt Q9NYK1).
T1 construct: host or cells: HEK-Blue TLR7 cells (engineered human embryonic kidney cells)
T1 sequence (Q9NYK1 27-1049): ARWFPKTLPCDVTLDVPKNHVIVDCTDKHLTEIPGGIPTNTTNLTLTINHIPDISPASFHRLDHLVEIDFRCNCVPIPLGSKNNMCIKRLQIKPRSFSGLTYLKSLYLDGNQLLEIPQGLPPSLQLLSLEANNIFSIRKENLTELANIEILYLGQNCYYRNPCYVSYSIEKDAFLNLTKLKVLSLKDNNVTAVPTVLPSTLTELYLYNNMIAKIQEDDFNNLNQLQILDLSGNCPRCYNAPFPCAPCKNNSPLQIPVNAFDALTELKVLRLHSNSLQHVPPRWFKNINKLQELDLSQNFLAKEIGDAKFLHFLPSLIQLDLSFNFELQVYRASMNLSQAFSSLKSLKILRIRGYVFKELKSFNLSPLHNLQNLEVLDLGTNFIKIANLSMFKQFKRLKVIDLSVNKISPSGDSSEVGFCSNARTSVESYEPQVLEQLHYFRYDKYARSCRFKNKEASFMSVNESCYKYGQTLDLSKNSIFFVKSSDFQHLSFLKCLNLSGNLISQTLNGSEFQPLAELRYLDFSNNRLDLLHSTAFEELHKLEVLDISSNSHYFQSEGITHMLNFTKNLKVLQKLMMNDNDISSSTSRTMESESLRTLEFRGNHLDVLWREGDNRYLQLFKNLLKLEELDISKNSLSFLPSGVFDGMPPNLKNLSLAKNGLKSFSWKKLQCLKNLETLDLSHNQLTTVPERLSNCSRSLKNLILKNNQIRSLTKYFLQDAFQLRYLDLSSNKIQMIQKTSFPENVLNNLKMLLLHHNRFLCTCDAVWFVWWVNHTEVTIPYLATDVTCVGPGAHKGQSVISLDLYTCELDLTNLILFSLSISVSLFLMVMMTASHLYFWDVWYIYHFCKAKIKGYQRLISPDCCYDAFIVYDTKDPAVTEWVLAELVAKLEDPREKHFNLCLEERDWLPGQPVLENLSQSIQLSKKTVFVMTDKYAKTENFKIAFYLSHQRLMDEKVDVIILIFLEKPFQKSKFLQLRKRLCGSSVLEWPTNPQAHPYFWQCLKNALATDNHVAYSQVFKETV
Description: HEK-Blue TLR7 reporter assay (SEAP reporter). The format is cell-based. The note with it: HEK-Blue TLR7 cells, 18 h treatment, SEAP readout; average if more than one assay; read-out: TLR7 Agonism HEK Blue ™ Assay EC50. The text has this: Table A presents biological activity data for compounds disclosed herein. One set of data relates TLR7 agonism activity using the HEK-Blue™ TLR7 reporter assay, as described in Example 11 hereinbelow. Another set of data relates to the induction of interleukin 6 (IL-6), a cytokine that plays an important role in the TLR7 pathway. […] In some instances, more that one TLR7 agonism or IL-6 induction assay was made; if so, the reported value is an average.
This example describes a method for assaying TLR7 agonist activity of the compounds disclosed in this specification.
HEK-Blue™ TLR7 cells were added to each well of a 384-well tissue-culture plate (15,000 cells per well) and incubated 16-18 h at 37° C., 5% CO2. Compounds (100 nl) were dispensed into wells containing the HEK-Blue™ TLR cells and the treated cells were incubated at 37° C., 5% CO2. After 18 h treatment ten microliters of freshly-prepared Quanti-Blue™ reagent (Invivogen) was added to each well, incubated for 30 min (37° C., 5% CO2) and SEAP levels measured using an Envision plate reader (OD=620 nm). […] EC50's can be determined with software such as Graphpad Prism™.
For orientation: In a reporter assay the amount or activity of a reporter protein is the signal.

The test system of the next assay is interleukin 6 (IL-6). Description: Interleukin 6 induction assay in human whole blood (AlphaLISA). Type of assay: cell-based. As to conditions: Homo sapiens, 20 h, 20 h at 37° C., 100% set by resiquimod reference at 10 μM, average if more than one assay, read-out: IL-6 Induction EC50 (nM) (normalized 10 μM). The text has this: Table A presents biological activity data for compounds disclosed herein. One set of data relates TLR7 agonism activity using the HEK-Blue™ TLR7 reporter assay, as described in Example 11 hereinbelow. Another set of data relates to the induction of interleukin 6 (IL-6), a cytokine that plays an important role in the TLR7 pathway. […] In some instances, more that one TLR7 agonism or IL-6 induction assay was made; if so, the reported value is an average. This example describes a method for assaying interleukin 6 (IL 6) induction by compounds disclosed in this specification. Compounds suspended in DMSO were transferred to individual wells of a Matrix Technologies clear, V-bottom 384-well plate using ECHO acoustic liquid handling technology (25 nL per well). Human whole-blood samples (25 uL) were added to each well using a CyBio FeliX liquid handling instrument and the plate was shaken on a plate shaker for three minutes before incubating the reaction mixtures at 37° C. for 20 h. Basel RPMI 1640 medium (supplemented with L-glutamine) was then added to each well (25 uL per well) prior to liberating plasma from each sample by centrifugation (450×g, 5 min, ambient temperature). Treated plasma samples (3 uL) were subsequently transferred to individual wells of a white, shallow, 384-well ProxiPlate (PerkinElmer) using the FeliX liquid handling instrument and their IL6 levels were measured using AlphaLISA technology as described by the manufacturer (PerkinElmer).

By EC50 is commonly meant the midpoint of the concentration-response curve.

The structures appear in SMILES notation.

As for `Nc1nc2nc3c1nc(O)n3Cc1cccc(c1)C/C=C/CCO2` [Compound B1, reference compound], at human TLR7, the concentration for a half-maximal effect (EC50) is 210 nM. `Nc1nc2nc3c1nc(O)n3Cc1cccc(c1)C/C=C\CCO2` [Compound B2, reference compound]: the EC50 on human TLR7 came out at 33 nM. Take `Nc1nc2nc3c1nc(O)n3Cc1ccc(O)c(c1)C/C=C/CCO2` [Compound B3, reference compound]: the values for the EC50 at human TLR7 and with interleukin 6 (IL-6) were 68 nM and 400 nM, respectively. In the same order, the values of `Nc1nc2nc3c1nc(O)n3Cc1ccc(O)c(c1)C/C=C\CCO2` [Compound B4, reference compound] are 17 nM and 960 nM. As to `Nc1nc2nc3c1nc(O)n3Cc1ccc(O)c(c1)CCCCCO2` [Compound B5, reference compound], the concentration giving a half-maximal response (EC50) at human TLR7 came to 580 nM. Same read-out and setting: to `Nc1nc2nc3c1nc(O)n3Cc1ccc(Oc3ccc(CO)cc3)c(c1)C/C=C/CCO2` [IIa-01] belongs 51 nM. Regarding `Nc1nc2nc3c1nc(O)n3Cc1ccc(Oc3ccc(CNC4CC4)cc3)c(c1)C/C=C/CCO2` [IIa-02], the values for the 50% effective concentration (EC50) on human TLR7 and in the assay with interleukin 6 (IL-6) were 4 nM and 5.2 nM, respectively.

Consider `Nc1nc2nc3c1nc(O)n3Cc1ccc(Oc3cccc(CNC4CC4)c3)c(c1)C/C=C/CCO2` [IIa-03], for which the EC50 worked out at 5.3 nM on human TLR7 and 47 nM with interleukin 6 (IL-6). Turning to `Nc1nc2nc3c1nc(O)n3Cc1ccc(Oc3ccc(CNC4CC4)cc3)c(c1)C/C=C\CCO2` [IIa-04], the EC50 was 0.91 nM at human TLR7 and 4.4 nM in the assay on interleukin 6 (IL-6). `Nc1nc2nc3c1nc(O)n3Cc1ccc(Oc3cccc(CNC4CC4)c3)c(c1)C/C=C\CCO2` [IIa-05]: the EC50 at human TLR7 was found to be 7.2 nM; in the assay on interleukin 6 (IL-6), 18 nM. For `Nc1nc2nc3c1nc(O)n3Cc1ccc(Oc3ccc(CNC4CCC4)cc3)c(c1)C/C=C\CCO2` [IIa-06], in that order: 1 nM and 2.2 nM.

For the compound `Nc1nc2nc3c1nc(O)n3Cc1ccc(Oc3cccc(CNC4CCC4)c3)c(c1)C/C=C\CCO2` [IIa-07], the figures for the 50% effective concentration (EC50) on human TLR7 and in the assay with interleukin 6 (IL-6) were 4.2 nM and 2.9 nM, respectively. For `COCCNCc1ccc(Oc2ccc3cc2C/C=C/CCOc2nc(N)c4nc(O)n(c4n2)C3)cc1` [IIa-09], the half-maximal effective concentration (EC50) at human TLR7 is 2.2 nM; with interleukin 6 (IL-6), 1.9 nM. For `COC(=O)CNCc1ccc(Oc2ccc3cc2C/C=C/CCOc2nc(N)c4nc(O)n(c4n2)C3)cc1` [IIa-10], in that order: 4.3 nM and 50 nM. In the same order, the values of `Nc1nc2nc3c1nc(O)n3Cc1ccc(Oc3ccc(CNC4CC4)cc3)c(c1)CCCCCO2` [IIa-11] are 6.6 nM and 5.5 nM.

On to `Nc1nc2nc3c1nc(O)n3Cc1ccc(Oc3cccc(CNC4CC4)c3)c(c1)CCCCCO2` [IIa-12], for which the results for the EC50 on human TLR7 and in the assay on interleukin 6 (IL-6) were 29 nM and 110 nM, respectively. As for `Nc1nc2nc3c1nc(O)n3Cc1cc(cc(Oc3ccc(CNC4CCC4)cc3)c1)C/C=C\CCO2` [IIa-13], the EC50 on human TLR7 was 0.94 nM; in the assay with interleukin 6 (IL-6), 13 nM. In the same order, the values of `Nc1nc2nc3c1nc(O)n3Cc1cc(cc(Oc3cccc(CNC4CCC4)c3)c1)C/C=C/CCO2` [IIa-14] are 19 nM and 140 nM. In the same order, the values of `Nc1nc2nc3c1nc(O)n3Cc1cc(cc(Oc3ccc(CNC4CC4)cc3)c1)C/C=C\CCO2` [IIa-15] are 9.2 nM and 57 nM. In the same order, the values of `Nc1nc2nc3c1nc(O)n3Cc1cc(cc(Oc3ccc(CNC4CCC4)cc3)c1)CCCCCO2` [IIa-16] are 42 nM and 250 nM.

On to `Nc1nc2nc3c1nc(O)n3Cc1cc(cc(Oc3ccc(CNC4CCC4)cc3)c1)C/C=C/CCO2` [IIa-17], for which the EC50 at human TLR7 worked out at 8.5 nM; in the assay with interleukin 6 (IL-6), 44 nM. For `Nc1nc2nc3c1nc(O)n3Cc1cc(cc(Oc3ccc(CNC4CC4)cc3)c1)C/C=C/CCO2` [IIa-18], in that order: 10 nM and 32 nM.

Turning to `Nc1nc2nc3c1nc(O)n3Cc1ccc(Oc3ccc(C(=O)NC4CNC4)cc3)c(c1)C/C=C\CCO2` [IIa-19], the concentration giving a half-maximal response (EC50) was 25 nM at human TLR7 and 95 nM with interleukin 6 (IL-6). For `Nc1nc2nc3c1nc(O)n3Cc1ccc(Oc3cccc(C(=O)NC4CNC4)c3)c(c1)C/C=C\CCO2` [IIa-20], in that order: 15 nM and 91 nM. On to `Nc1nc2nc3c1nc(O)n3Cc1ccc(-c3cnn(CCNC4CC4)c3)c(c1)C/C=C/CCO2` [IIb-01], for which the figures for the concentration giving a half-maximal response (EC50) on human TLR7 and in the assay with interleukin 6 (IL-6) were 0.67 nM and 42 nM, respectively.

Consider `Nc1nc2nc3c1nc(O)n3Cc1ccc(-c3cnn(CCNC4CC4)c3)c(c1)C/C=C\CCO2` [IIb-02], for which the EC50 worked out at 0.35 nM on human TLR7 and 1.3 nM with interleukin 6 (IL-6).

As to `Nc1nc2nc3c1nc(O)n3Cc1ccc(-c3cnn(CCNC4CC4)c3)c(c1)CCCCCO2` [IIb-03], the EC50 is 2.9 nM on human TLR7 and 65 nM in the assay with interleukin 6 (IL-6). For `Nc1nc2nc3c1nc(O)n3Cc1ccc(-c3ccc(CNC4CC4)nc3)c(c1)C/C=C/CCO2` [IIb-04], the results for the EC50 on human TLR7 and in the assay with interleukin 6 (IL-6) were 0.28 nM and 10 nM, respectively. Turning to `Nc1nc2nc3c1nc(O)n3Cc1ccc(-c3ccc(CNC4CCC4)nc3)c(c1)C/C=C/CCO2` [IIb-05], the results for the half-maximal effective concentration (EC50) at human TLR7 and in the assay on interleukin 6 (IL-6) were 0.22 nM and 0.62 nM, respectively. On to `Nc1nc2nc3c1nc(O)n3Cc1ccc(-c3cn[nH]c3)c(c1)C/C=C/CCO2` [IIb-06], for which the concentration giving a half-maximal response (EC50) amounted to 21 nM at human TLR7 and 570 nM in the assay with interleukin 6 (IL-6). For `Nc1nc2nc3c1nc(O)n3Cc1ccc(-c3cnn(CCNC4CCC4)c3)c(c1)C/C=C/CCO2` [IIb-07], in that order: 0.22 nM and 1.6 nM. Consider `Nc1nc2nc3c1nc(O)n3Cc1ccc(-c3cnn(CCNC4CCC4)c3)c(c1)CCCCCO2` [IIb-08], for which the EC50 stood at 1.7 nM at human TLR7 and 6.2 nM in the assay on interleukin 6 (IL-6). In the same order, the values of `Nc1nc2nc3c1nc(O)n3Cc1ccc(-c3cnn(CCNC4CCC4)c3)c(c1)C/C=C\CCO2` [IIb-09] are 0.35 nM and 2.1 nM.

Turning to `Nc1nc2nc3c1nc(O)n3Cc1ccc(-c3ccc(CNC4CCC4)cc3)c(c1)C/C=C/CCO2` [IIb-10], the 50% effective concentration (EC50) on human TLR7 came to 1.1 nM; in the assay on interleukin 6 (IL-6), 0.41 nM. Regarding `Nc1nc2nc3c1nc(O)n3Cc1ccc(-c3ccc(CNC4COC4)cc3)c(c1)C/C=C\CCO2` [IIb-33], the EC50 at human TLR7 was 0.42 nM. On the same count and under the same terms, to `Nc1nc2nc3c1nc(O)n3Cc1ccc(-c3cnn(C4CNC4)c3)c(c1)C/C=C/CCO2` [IIb-35] belongs 1.5 nM. Still for that read-out and setting: to `Nc1nc2nc3c1nc(O)n3Cc1ccc(-c3cnn(C4CCNCC4)c3)c(c1)C/C=C/CCO2` [IIb-36] belongs 1 nM. Same read-out and setting: to `Nc1nc2nc3c1nc(O)n3Cc1ccc(-c3cnn(CC(=O)NC4CNC4)c3)c(c1)C/C=C\CCO2` [IIb-39] belongs 1.6 nM. In the case of `CCOCc1nc2c(N)nc3ccccc3c2n1CC(C)(C)O` [Resiquimod, resiquimod, reference compound], the 50% effective concentration (EC50) in the assay on interleukin 6 (IL-6) came to 350 nM.
